Starred links: 1 amine or outer side, 2 acyl side, 3 side chain; linkers in the order of their positions; H or OH if unused. Positions of bridges follow the written chain, without caps; N, C: chain ends. Non-standard residues stand in square brackets, D forms with d. Residues, ends and D or L forms follow the SMILES beside them. X46 = CCn1c2ccccc2c2cc(CNCC[C@H](N[*:1])C(=O)[*:2])ccc21; Trp(1-CH2COOH) = N[C@@H](Cc1cn(CC(=O)O)c2ccccc12)C(=O)O; X45 = CCn1c2ccccc2c2cc(CNC[C@H](N[*:1])C(=O)[*:2])ccc21; X57 = COc1cc2cccc(OC)c2cc1CNCC[C@H](N[*:1])C(=O)[*:2]; X10 = O=C([C@H](CNCc1c2ccccc2nc2ccccc12)N[*:1])[*:2]; X36 = COc1cc2cccc(OC)c2cc1CNC[C@H](N[*:1])C(=O)[*:2]; X14 = O=C([C@H](CCNCc1cccc2[nH]ccc12)N[*:1])[*:2]; X13 = O=C([C@H](CNCc1cccc2[nH]ccc12)N[*:1])[*:2]; X23 = O=C([C@H](CCNCc1cc2ccccc2o1)N[*:1])[*:2]; X22 = O=C([C@H](CNCc1cc2ccccc2o1)N[*:1])[*:2]; Hyp = O=C(O)[C@@H]1C[C@@H](O)CN1; NMeNle = CCCC[C@H](NC)C(=O)O; NMeA = CN[C@@H](C)C(=O)O; Dab = NCC[C@H](N)C(=O)O
Target: T1, PD-1/PD-L1 (Homo sapiens, UniProt Q9NZQ7)
T1 construct: TVMV protease site (linker) (C); made in house; host or cells: HEK293T cells
Assay: PD-1/PD-L1 Homogenous Time-Resolved Fluorescence (HTRF) binding assay
Conditions: PD-L1-His 10 nM, PD-1-Ig 20 nM
Text: The ability of the compounds of formula (I) to bind to PD-L1 was investigated using a PD-1/PD-L1 Homogenous Time-Resolved Fluorescence (HTRF) binding assay.
The interaction of PD-1 and PD-L1 can be assessed using soluble, purified preparations of the extracellular domains of the two proteins. The PD-1 and PD-L1 protein extracellular domains were expressed as fusion proteins with detection tags, for PD-1, the tag was the Fc portion of Immunoglobulin (PD-1-Ig) and for PD-L1 it was the 6 histidine motif (PD-L1-His). All binding studies were performed in an HTRF assay buffer consisting of dPBS supplemented with 0.1% […] bovine serum albumin and 0.05% (v/v) Tween-20. For the h/PD-L1-His binding assay, inhibitors were pre-incubated with PD-L1-His (10 nM final) for 15 m in 4 µl of assay buffer, followed by addition of PD-1-Ig (20 nM final) in 1 µl of assay buffer and further incubation for 15 m. HTRF detection was achieved using europium crypate-labeled anti-Ig (1 nM final) and allophycocyanin (APC) labeled anti-His (20 nM final). Antibodies were diluted in HTRF detection buffer and 5 µl was dispensed on top of the binding reaction. The reaction mixture was allowed to equilibrate for 30 minutes and the resulting signal (665 nm/620 nm ratio) was obtained using an EnVision fluorometer. Additional binding assays were established between the human proteins PD-1-Ig/PD-L2-His (20 & 5 nM, respectively) and CD80-His/PD-L1-Ig (100 & 10 nM, respectively).
Recombinant Proteins: Human PD-1 (25-167) with a C-terminal human Fc domain of immunoglobulin G (Ig) epitope tag [hPD-1 (25-167)-3S-IG] and human PD-L1 (18-239) with a C-terminal His epitope tag [hPD-L1(18-239)-TVMV-His] were expressed in HEK293T cells and purified sequentially by ProteinA affinity chromatography and size exclusion chromatography. Human PD-L2-His and CD80-His was obtained through commercial sources.
Table 1 lists the IC50 values for representative examples of this disclosure measured in the PD-1/PD-L1 Homogenous Time-Resolved Fluorescence (HTRF) binding assay.

T1 sequence (Q9NZQ7 18-239): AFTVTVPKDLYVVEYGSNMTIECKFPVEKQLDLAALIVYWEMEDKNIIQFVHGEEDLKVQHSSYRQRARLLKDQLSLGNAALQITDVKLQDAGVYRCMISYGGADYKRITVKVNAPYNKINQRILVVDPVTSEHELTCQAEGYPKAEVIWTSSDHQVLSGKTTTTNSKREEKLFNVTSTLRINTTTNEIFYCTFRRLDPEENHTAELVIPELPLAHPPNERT

SMILES	IC50 [nM]
CCCC[C@H]1C(=O)N(C)[C@@H](CCCC)C(=O)N[C@@H](CC(C)C)C(=O)N[C@H](C(=O)NCC(N)=O)CSCC(=O)N[C@@H](Cc2ccc(O)cc2)C(=O)N(C)[C@@H](C)C(=O)N[C@@H](CC(N)=O)C(=O)N2CCC[C@H]2C(=O)N[C@@H](CNCc2cccc3[nH]ccc23)C(=O)N[C@@H](CC(C)C)C(=O)N2C[C@H](O)C[C@H]2C(=O)N[C@@H](Cc2c[nH]c3ccccc23)C(=O)N[C@@H](CCNCc2cccc3[nH]ccc23)C(=O)N[C@@H](Cc2cn(CC(=O)O)c3ccccc23)C(=O)N1C [Example 1008] ({CH2CO}-Y[NMeA]NP[X13]L[Hyp]W[X14][Trp(1-CH2COOH)][NMeNle][NMeNle]LCG-NH2; thioether N-14)	4.9
CCCC[C@H]1C(=O)N(C)[C@@H](CCCC)C(=O)N[C@@H](CC(C)C)C(=O)N[C@H](C(=O)NCC(N)=O)CSCC(=O)N[C@@H](Cc2ccc(O)cc2)C(=O)N(C)[C@@H](C)C(=O)N[C@@H](CC(N)=O)C(=O)N2CCC[C@H]2C(=O)N[C@@H](CNCc2ccc3c(c2)c2ccccc2n3CC)C(=O)N[C@@H](CC(C)C)C(=O)N2C[C@H](O)C[C@H]2C(=O)N[C@@H](Cc2c[nH]c3ccccc23)C(=O)N[C@@H](CCNCc2ccc3c(c2)c2ccccc2n3CC)C(=O)N[C@@H](Cc2cn(CC(=O)O)c3ccccc23)C(=O)N1C [Example 1009] ({CH2CO}-Y[NMeA]NP[X45]L[Hyp]W[X46][Trp(1-CH2COOH)][NMeNle][NMeNle]LCG-NH2; thioether N-14)	9.8
CCCC[C@H]1C(=O)N(C)[C@@H](CCCC)C(=O)N[C@@H](CC(C)C)C(=O)N[C@H](C(=O)NCC(N)=O)CSCC(=O)N[C@@H](Cc2ccc(O)cc2)C(=O)N(C)[C@@H](C)C(=O)N[C@@H](CC(N)=O)C(=O)N2CCC[C@H]2C(=O)N[C@@H](CNCc2cc3ccccc3o2)C(=O)N[C@@H](CC(C)C)C(=O)N2C[C@H](O)C[C@H]2C(=O)N[C@@H](Cc2c[nH]c3ccccc23)C(=O)N[C@@H](CCNCc2cc3ccccc3o2)C(=O)N[C@@H](Cc2cn(CC(=O)O)c3ccccc23)C(=O)N1C [Example 1010] ({CH2CO}-Y[NMeA]NP[X22]L[Hyp]W[X23][Trp(1-CH2COOH)][NMeNle][NMeNle]LCG-NH2; thioether N-14)	12
CCCC[C@H]1C(=O)N(C)[C@@H](CCCC)C(=O)N[C@@H](CC(C)C)C(=O)N[C@H](C(=O)NCC(N)=O)CSCC(=O)N[C@@H](Cc2ccc(O)cc2)C(=O)N(C)[C@@H](C)C(=O)N[C@@H](CC(N)=O)C(=O)N2CCC[C@H]2C(=O)N[C@@H](CNCc2cc3c(OC)cccc3cc2OC)C(=O)N[C@@H](CC(C)C)C(=O)N2C[C@H](O)C[C@H]2C(=O)N[C@@H](Cc2c[nH]c3ccccc23)C(=O)N[C@@H](CCNCc2cc3c(OC)cccc3cc2OC)C(=O)N[C@@H](Cc2cn(CC(=O)O)c3ccccc23)C(=O)N1C [Example 1011] ({CH2CO}-Y[NMeA]NP[X36]L[Hyp]W[X57][Trp(1-CH2COOH)][NMeNle][NMeNle]LCG-NH2; thioether N-14)	7
CCCC[C@H]1C(=O)N(C)[C@@H](CCCC)C(=O)N[C@@H](CC(C)C)C(=O)N[C@H](C(=O)NCC(N)=O)CSCC(=O)N[C@@H](Cc2ccc(O)cc2)C(=O)N(C)[C@@H](C)C(=O)N[C@@H](CC(N)=O)C(=O)N2CCC[C@H]2C(=O)N[C@@H](CNCc2c3ccccc3nc3ccccc23)C(=O)N[C@@H](CC(C)C)C(=O)N2C[C@H](O)C[C@H]2C(=O)N[C@@H](Cc2c[nH]c3ccccc23)C(=O)N[C@@H](CCN)C(=O)N[C@@H](Cc2cn(CC(=O)O)c3ccccc23)C(=O)N1C [Example 1013] ({CH2CO}-Y[NMeA]NP[X10]L[Hyp]W[Dab][Trp(1-CH2COOH)][NMeNle][NMeNle]LCG-NH2; thioether N-14)	4.6
CCCC[C@H]1C(=O)N(C)[C@@H](CCCC)C(=O)N[C@@H](CC(C)C)C(=O)N[C@H](C(=O)NCC(N)=O)CSCC(=O)N[C@@H](Cc2ccc(O)cc2)C(=O)N(C)[C@@H](C)C(=O)N[C@@H](CC(N)=O)C(=O)N2CCC[C@H]2C(=O)N[C@@H](CNCc2ccc3c(c2)c2ccccc2n3CC)C(=O)N[C@@H](CC(C)C)C(=O)N2C[C@H](O)C[C@H]2C(=O)N[C@@H](Cc2c[nH]c3ccccc23)C(=O)N[C@@H](CCN)C(=O)N[C@@H](Cc2cn(CC(=O)O)c3ccccc23)C(=O)N1C [Example 1014] ({CH2CO}-Y[NMeA]NP[X45]L[Hyp]W[Dab][Trp(1-CH2COOH)][NMeNle][NMeNle]LCG-NH2; thioether N-14)	4.7

From patent publication US20230242585A1, “IMMUNOMODULATORS” (Bristol-Myers Squibb Company, priority 2020, published 2023)
